Results published in ChEMBL document CHEMBL6109162, “Discovery of Highly Potent BET Inhibitors based on a Tractable Tricyclic Scaffold” (ACS Med Chem Lett, 2025).

Assays:
[1] = biological target: T1, Bromodomain-containing protein 4 (Homo sapiens, UniProt O60885); assay: Inhibition of BRD4 (unknown origin) by FRET assay
[2] = biological target: T1, Bromodomain-containing protein 4; assay: Inhibition of BRD4 BD1 (unknown origin) by FRET assay

IC50 [1] [nM]	IC50 [2] [nM]	Compound
1.51		CCS(=O)(=O)Nc1ccc(Oc2ccc(F)cc2F)c(-c2cn(C)c(=O)c3[nH]ccc23)c1 [MIVEBRESIB]
	2.88	Cc1nnn(C)c1-c1cnc2c3ccc(C(C)(C)O)cc3n([C@@H](c3ccccc3)C3CCOCC3)c2c1
